Columns and labels:
[1] = UPLC-MS/MS quantification of berberine and metabolites in plasma; format: in vivo, Ross 308 broiler chickens; conditions: chickens fed 0.1, 0.5 or 1 g berberine/kg feed for 21 days; LOQ 0.1 ng/mL
Text: (§1) The study was undertaken following the guidelines of the ethics committee of the Faculty of Veterinary Medicine and Bioscience Engineering, Ghent University, in accordance with the EU Directive 2010/63/EU. One-day-old Ross 308 male broilers were obtained from a local hatchery and housed in pens on wood shavings. They were allotted into 4 groups, with three replicate pens per group each housing 8 chickens. The animals were not vaccinated. Water and commercial starter feed (day 1–12, FARM 1 Mash, Country’s Best, Versele Laga, Deinze, Belgium) or grower (day 13–21, FARM 2 mash, Country’s Best, Versele Laga, Deinze, Belgium) were provided ad libitum. The control group received the standard non-supplemented diets, whereas the chickens in other groups were fed the same feed supplemented with 0.1, 0.5 or 1 g berberine/kg feed throughout the whole trial period. At day 21, 4 birds per pen were weighted then euthanized by sodium pentobarbital injection for sampling. Individual jejunal, ileal, caecal and colonic contents were stored at −20°C for microbiota composition analysis (16S rRNA gene sequencing). Additionally, ileal and caecal content samples were collected and stored at −20°C for berberine and berberine-derived metabolite quantification. Duodenal tissue samples were collected and fixed in 4% phosphate buffered formaldehyde for histological analysis. Blood samples were collected in heparin tubes and centrifuged at 524 g for 10 min to recover the plasma fraction, which was further mixed with 17 mg/mL L-ascorbic acid for dihydroberberine stabilization, and stored at −20°C for berberine and berberine-derived metabolite quantification.
(§2) The column temperature was maintained at 25°C. The autosampler temperature was set at 10°C.
A 137.5 µL plasma sample containing 17 mg/mL L-ascorbic acid was used for sample extraction. The ascorbic acid solution was added to prevent oxidation of dihydroberberine to berberine during sample storage ([Feng et al., 2015]). The plasma sample was transferred to an OstroTM 96 well-plate (25 mg) (Waters). Subsequently, 50 µL Milli-Q water and 25 µL of an internal standard solution containing 100 ng/mL of both berberine-d6 and tetrahydropalmatine were added. A 640 µL volume of 1% (v/v) formic acid solution in acetonitrile (1/3 ratio) was added, followed by gentle mixing. Vacuum was applied on the Ostro™ plate for 5 min and the eluate was collected in a 2 mL square 96-well collector plate. The sample was transferred in a glass tube and evaporated at 40°C under a gentle stream of nitrogen in a Pierce (Rockford, United States) Reacti-Therm III™ Heating Module and Reacti-Vap™ III Module. The dried sample extract was reconstituted in 500 µL Milli-Q water, followed by injection of a 5 µL sample aliquot onto the UPLC-MS/MS apparatus. Quantification was based on the ratio of the analyte peak area compared to the peak area of the internal standard berberine-d6.
Calibration standards and quality control samples were prepared as follows: 137.5 µL of blank plasma stabilized with 17 mg/mL L-ascorbic acid were supplemented with 25 µL mixed working solutions of berberine and metabolites (except dihydroberberine) at different levels, 25 µL of dihydroberberine working solution, stabilized with 17 mg/mL L-ascorbic acid, at different levels and 25 µL of an internal standard solution containing 100 ng/mL of both berberine-d6 and tetrahydropalmatine. The calibration curve was in the 0.1–100 ng/mL range, including 0.1, 0.5, 1, 2.5, 5, 10, 25, […], 50 and 100 ng/mL levels.
The UPLC-MS/MS analysis method for the quantification of berberine and berberine-derived metabolites both in plasma and ileal/caecal intestinal content was validated to the guidelines of the European Medicines Agency, i.e., of the Committee for Veterinary Medicinal Products (EMEA/CVMP/VICH/463202/2009) and of the Committee for Medicinal Products for Human Use (EMEA/CHMP/EWP/192217/20), and in accordance with the EU Directive 2002/657/EC. […]

[2] = UPLC-MS/MS quantification of berberine and metabolites in ileal and caecal content; format: in vivo, Ross 308 broiler chickens; conditions: 21 days
Text: as §1, §2
250 mg of ileal or caecal content was weighed in a 15 mL polypropylene centrifuge tube and 250 µL of ascorbic acid 170 mg/mL solution was added for stabilization of dihydroberberine, followed by brief vortexing. Subsequently, 25 µL of an internal standard solution containing 250 μg/mL of berberine-d6 and 2.5 μg/mL tetrahydropalmatine were added, followed by brief vortexing. A 2.5 mL volume of extraction solvent was then added, consisting of a 1% (v/v) formic acid solution in methanol. The sample was put on a rotary shaker set at 80 rpm for 20 min, followed by centrifugation (3,720 g, 10 min, 4°C). The supernatant was then diluted, by a factor 5 for measurement of low abundance components, and by a factor 2,000 for measurement of high abundance components. The 1/5 diluted sample extract was prepared directly in an autosampler vial as follows: 200 µL sample extract were mixed with 100 µL ascorbic acid 170 mg/mL solution and 700 µL Milli-Q water. For the 1/2,000 diluted sample extract, an intermediate 1/100 sample dilution was prepared by combining 500 µL sample extract and 49.5 mL of Milli-Q water. 50 μL was then transferred in an autosampler vial followed by the addition of 950 µL of Milli-Q water. For both dilutions, a 5 µL sample aliquot was injected onto the UPLC-MS/MS apparatus. Quantification was based on the ratio of the analyte peak area compared to the peak area of the internal standard tetrahydropalmatine for 1/5 diluted sample extracts, and on the ratio of the analyte peak area compared to the peak area of the internal standard berberine-d6 for 1/2,000 diluted sample extracts.
Calibration standards and quality control samples were prepared as follows: 250 mg of blank ileal or caecal content were supplemented with 250 µL of ascorbic acid 170 mg/mL solution, 25 µL mixed solution of berberine and metabolites (with the exception of dihydroberberine) at different levels, 25 µL of dihydroberberine solution, stabilized with 17 mg/mL ascorbic acid, at different levels and 25 µL of an internal standard solution containing 0.625 μg/mL of berberine-d6 and 2.5 μg/mL tetrahydropalmatine. The calibration curve was in the 62.5–5,000 ng/g range, and included 62.5, 125, 250, 500, 1,000, 2,500, and 5,000 ng/g levels. […]

[3] = Dihydroberberine stability in solution over 24 hours; format: physicochemical; conditions: within 24 h; 10 ng/mL in Milli-Q water, 10°C, without vitamin C
Procedure: A working solution of dihydroberberine at 10 ng/mL was prepared in Milli-Q water and supplemented or not with 17 mg/mL L-ascorbic acid (vitamin C) solution and injected during 24 hours of storage time in the autosampler at 10°C.

Caco-2 cells = experiment: Berberine metabolism in intestinal cell cultures, Caco-2; format: in vitro ADME, human
Procedure: (§3) Caco-2 and T84 cells were seeded at 2 × 10^5 cells/well in 96-well plates and cultivated for 24 h in their respective medium, as described before. Cells were treated with 200 µL of 0.1 μg/mL berberine in antibiotic-free medium and incubated for 48 h. Berberine medium only was incubated in the same conditions as the cells and used as control for metabolite baseline levels. 100 μL of cell cultures or control medium were collected and centrifuged at 13,000 g for 10 min 80 μL of the supernatant was mixed with 20 µL 170 mg/mL L-ascorbic acid solution in water for dihydroberberine stabilization and stored at −20°C until metabolite analysis. All experiments were performed in triplicate at 37°C, 5% CO2. Metabolite production was expressed as a log2 fold change, calculated as the log2 of the ratio of the metabolite response at t = 48 h in the cell cultures over the metabolite response at t = 48 h in the control medium.
as §2

T84 cells = experiment: Berberine metabolism in intestinal cell cultures, T84; format: in vitro ADME, human
Procedure: as §3, §2

## COc1ccc2c(c1OC)CN1CCc3cc4c(cc3C1=C2)OCO4 [Dihydroberberine, dihydroberberine]
[1]
  Detection in plasma: effectively detected
[2]; 0.1 g berberine/kg feed
  Ratio caecum / ileum (concentration): 0.75
[2]; 0.5 g berberine/kg feed
  Ratio caecum / ileum (concentration): 0.27
[2]; 1 g berberine/kg feed
  Ratio caecum / ileum (concentration): 0.44
[3]
  Oxidation of dihydroberberine back to berberine: up to 66%

## COc1ccc2cc3n(c(=O)c2c1OC)CCc1cc2c(cc1-3)OCO2 [Oxyberberine, oxyberberine]
[1]
  Detection in plasma: not detected
[2]; 0.1 g berberine/kg feed
  Ratio caecum / ileum (concentration): 1.94
[2]; 0.5 g berberine/kg feed
  Ratio caecum / ileum (concentration): 1.48
[2]; 1 g berberine/kg feed
  Ratio caecum / ileum (concentration): 0.95
Caco-2 cells; Caco-2, 0.1 μg/mL berberine, 48 h
  Detection in cell culture: not detected
T84 cells; T84, 0.1 μg/mL berberine, 48 h
  Detection in cell culture: not detected

## COc1cc2c(cc1OC)-c1cc3ccc(OC)c(OC)c3c[n+]1CC2 [Palmatine, palmatine chloride]
Caco-2 cells; human, Caco-2, 48 h, 0.1 µg/mL
  Log2(fold change) of metabolite response, cell culture over berberine control medium at 48 h: -0.18
T84 cells; human, 0.1 µg/mL
  Log2(fold change) of metabolite response, cell culture over berberine control medium at 48 h: -0.72

Source: PMC10733463, “Berberine-microbiota interplay: orchestrating gut health through modulation of the gut microbiota and metabolic transformation into bioactive metabolites” (Frontiers in Pharmacology, 2023)
